Data as given in patent US20060094003A1, “Acetylcholine-dependent current as a novel ionic target for atrial fibrillation” (priority 2004, published 2006).
Like-named read-outs stand apart in the source and are kept apart here.

Key:
[1] = system: instantaneous inward-rectifier current; test: Whole-cell patch-clamp of instantaneous inward-rectifier current in canine cardiomyocytes; assay type: cell-based; conditions: at −120 mV, extracellular ion
Description: (§1) Adult mongrel dogs of either sex (weighing about 20-35 kg) were anaesthetized with pentobarbital (30 mg kg^−1 I.V.) and artificially ventilated with room air. Hearts and adjacent lung tissue were relatively quickly excised through a left lateral thoracotomy and immersed in oxygenated Tyrode solution (composition detailed hereinbelow) at room temperature. […] A left atrial (LA) preparation with the PVs intact was perfused via the left circumflex coronary artery, and subjected to either standard fine-tipped microelectrode recording of action potentials (APs) or cardiomyocyte isolation with collagenase-containing solutions, as previously described (Ehrlich et al. 2003). Six dogs were subjected to atrial tachycardia-induced remodeling induced by 1 week of atrial pacing at about 400 beats min^−1 after ablation of the AV node, as described in Li et al. 1999. Animal care and handling procedures followed the guidelines of the Canadian Council on Animal Care.
To isolate LA and PV cardiomyocytes, the proximal circumflex artery was cannulated and the distal ends of PV myocardial sleeves (approximately 1-1.5 cm from the PV-LA junction) were marked with silk thread prior to subsequent enzyme perfusion with collagenase (100 U ml^−1, Worthington, type II), in order to facilitate localization of PV sleeves after enzymatic digestion. […] All comparisons were based on PV and LA cardiomyocytes isolated from each dog on each experimental day. After isolation, cells were stored at 4° C. and studied on the same day. […]
Currents were recorded with the whole-cell patch-clamp technique at 36±0.5° C., as described in Yue et al. 1996. […] Capacitance was assessed using 5 mV, 10 ms hyperpolarizing steps from a holding potential (HP) of −60 mV. […]
Currents were recorded with hyperpolarizing and depolarizing pulses (generally 4 s duration) from a HP of −40 mV to selected test potentials (TPs). […] For the determination of reversal potentials, tail currents were recorded after 1.6 s pulses to −120 mV followed by 3.2 s depolarizations to TPs between −110 and +20. […]

[2] = system: IKH; assay type: cell-based, canine; conditions: for IC50: extracellular ion, read-out: IC50 for time-dependent IKH; for effect on IKH (in words): substance alone; for increase of IKH tail currents: following a pulse to −120 mV; for IKH tail current: following hyperpolarization to −120 mV; for IKH mean current density: at −100 mV; for IKH activation by carbachol after pertussis toxin pretreatment (in words): 1.5 mg l−1 PTX, 37° C., at least 9 h
Description: as §1
To isolate LA and PV cardiomyocytes, the proximal circumflex artery was cannulated and the distal ends of PV myocardial sleeves (approximately 1-1.5 cm from the PV-LA junction) were marked with silk thread prior to subsequent enzyme perfusion with collagenase (100 U ml^−1, Worthington, type II), in order to facilitate localization of PV sleeves after enzymatic digestion. […] All comparisons were based on PV and LA cardiomyocytes isolated from each dog on each experimental day. After isolation, cells were stored at 4° C. and studied on the same day. For standard microelectrode experiments, intact tissue preparations including the LA and adjacent PVs were mounted in a chamber and perfused via the circumflex artery with oxygenated Krebs solution at 36±0.5° C. (see for example Kneller et al. 2002).
(§2) Currents were recorded with the whole-cell patch-clamp technique at 36±0.5° C., as described in Yue et al. 1996. All junction potentials were zeroed prior to formation of gigaohm seals. […] Capacitance was assessed using 5 mV, 10 ms hyperpolarizing steps from a holding potential (HP) of −60 mV. […] Original recordings are shown in terms of current amplitude, but mean data are presented as current density (pA pF−1) to control for variability in cell size.
(§3) Currents were recorded with hyperpolarizing and depolarizing pulses (generally 4 s duration) from a HP of −40 mV to selected test potentials (TPs). Recordings were repeated 3 times, and mean values obtained. For the determination of reversal potentials, tail currents were recorded after 1.6 s pulses to −120 mV followed by 3.2 s depolarizations to TPs between −110 and +20. All voltage protocols were delivered at 0.1 Hz.
(§4) Tyrode solution contained (mM): NaCl 136, KCl 5.4, MgCl2 1, CaCl2 1, NaH2PO4 0.33, Hepes 5 and dextrose 10 (pH 7.35 with NaOH). The cell-storage solution contained (mM): KCl 20, KH2PO4 10, dextrose 10, mannitol 40, L-glutamic acid 70, β-OH-butyric acid 10, taurine 20, EGTA 10 and 0.1% bovine serum albumin (pH 7.3, KOH). Nifedipine (5 μM) was used to suppress L-type Ca^2+ current (ICa) in all experiments. 4-Aminopyridine (4-AP, 2 mM) was added to suppress transient outward current (Ito). […] Na+ current (INa) contamination was avoided by using a HP of −40 mV for recording of hyperpolarization-induced currents and by substitution of equimolar Tris-HCl for external NaCl for tail-current recordings.

[3] = system: holding current; test: Holding current in whole-cell patch-clamp of cardiomyocytes; assay type: cell-based, canine
Description: as §2, §3
as §4, with “recordings. When different external K^+ concentrations were applied, the osmolarity was kept constant by proportionate reduction of NaCl content in the solution. The standard internal solution contained (mM): potassium aspartate 110, KCl 20, MgCl2 1, MgATP 5, GTP (lithium salt) 0.1, Hepes 10, sodium phosphocreatine 5 and EGTA 5.0 (pH 7.3 with KOH). In experiments with K+-free internal solution, potassium aspartate was replaced by equimolar caesium aspartate and KCl by CsCl and pH was set to 7.3 with CsOH. For standard-microelectrode experiments, a solution containing (mM): NaCl 120, KCl 4, KH2PO4 1.2, MgSO4 1.2, NaHCO3 25, CaCl2 1.25 and dextrose 5 (95% O2-5% CO2, pH 7.4) was used to perfuse the tissue.” for “recordings.”
Stock solutions of BaCl2 (1 M) and CsCl (1 M) were produced initially and used throughout the experiments. Stock solution of isoproterenol was prepared under protection from light on the day of experiments and freshly prepared ascorbic acid (100 μM) was added in order to prevent isoproterenol oxidization. Carbachol (1 μM) was dissolved in Tyrode solution, tertiapin-Q in 0.1% acetic acid. GTPS (0.1 mM) was used in place of GTP in internal solutions for some experiments. For experiments involving pertussis toxin (PTX, stock solution dissolved in distilled H2O) cells were incubated at 37° C. in 1.5 mg I-1 PTX for at least 9 h prior to experiments. Parallel controls were performed with cells from the same isolates incubated in the same fashion and the same solution, but without PTX. […] Unless otherwise specified, drugs were obtained from Sigma.

## [Ba+2].[Cl-].[Cl-] [Ba^2+, BaCl2]
[1]
  IC50: 76 ± 17.9 µM
[2]; 1 μM, most cells
  inhibition of IKH (in words): inhibited IKH appreciably
[2]; 10 μM
  inhibition of IKH (in words): full inhibition
[2]; at −120 mV
  IC50: 2 ± 0.3 µM

## [Cl-].[Cs+] [Cs^+, CsCl]
[1]
  IC50: 139 ± 34.2 µM
[2]; at −120 mV
  IC50: 184 ± 18.2 µM

## Nc1nc2c(ncn2[C@@H]2O[C@H](COP(=O)(O)OP(=O)(O)OP(O)(O)=S)[C@@H](O)[C@H]2O)c(=O)[nH]1 [GTPS]
[2]; GTPS 0.1 mM in place of GTP
  further IKH response to carbachol with GTPS in the pipette (in words): fully prevented
[2]; at −120 mV, GTPS in pipette, no cholinergic stimulation (regular GTP −3.8±0.6)
  IKH current density: −8.2±0.8 pA pF^−1
[2]
  effect on IKH (in words): increased

## C[N+](C)(C)CCOC(N)=O [carbachol]
[2]; 1 μM carbachol, voltages between −120 and −90 mV, PV cells
  average increase of IKH: 188±54%
[2]; at −120 mV, 1 μM carbachol, GTP-containing pipettes (before −6.2±1.0)
  IKH current density: −10.0±1.2 pA pF^−1
[2]; at −120 mV, 1 μM carbachol, GTP-free pipettes (before −8.3±0.7)
  IKH current density: −8.3±1.1 pA pF^−1
[2]; at −120 mV, 1 μM carbachol, LA cells (baseline −1.9±0.4)
  IKH current density: −4.9±1.1 pA pF^−1
[2]; at −120 mV, 1 μM carbachol, PV cells (baseline −2.6±0.5)
  IKH current density: −5.0±0.6 pA pF^−1
[2]; at −120 mV, carbachol, cells incubated without PTX at 37° C. >9 h (before −6.2±1.8)
  IKH density: −11.5±1.8 pA pF^−1
[2]; at −120 mV, carbachol, cells preincubated with PTX
  IKH density: −5.5±1.2 pA pF−1
[2]; carbachol, PTX-treated cells
  increase of IKH tail currents: 127±37%
[2]; carbachol, cells incubated without PTX
  increase of IKH tail currents: 538±170%
[2]; after carbachol, PTX-free conditions (before 2.1±0.7)
  IKH tail current: 8.4±1.6 pA pF^−1
[2]; after carbachol, PTX-preincubated cells
  IKH tail current: 3.4±0.9 pA pF^−1
[2]
  effect on IKH (in words): increased

## CC(C)NCC(O)c1ccc(O)c(O)c1 (stereo not shown) [isoproterenol]
[3]; 10 nM isoproterenol
  increase of holding current: 59±14%
[3]; 10 nM isoproterenol (control 44±11)
  holding current: 65±14 pA pF−1
[3]; 100 nM isoproterenol
  increase of holding current: 89±33%
[3]; 100 nM isoproterenol (control 44±11)
  holding current: 70±13 pA pF−1
[3]; 1000 nM isoproterenol
  increase of holding current: 144±37%
[3]; 1000 nM isoproterenol (control 44±11)
  holding current: 87±14 pA pF−1
[2]; 1 μM isoproterenol, PV cell
  time to steady-state effect on IKH: ≤ 2 min
[2]; 10 nM isoproterenol (control −0.9±0.1)
  IKH mean current density: −1.2±0.1 pA pF^−1
[2]; 100 nM isoproterenol (control −0.9±0.1)
  IKH mean current density: −1.4±0.2 pA pF^−1
[2]; 1000 nM isoproterenol (control −0.9±0.1)
  IKH mean current density: −1.5±0.1 pA pF^−1
[2]; at −120 mV, 1 μM isoproterenol in the presence of 200 nM tertiapin-Q
  mean end-pulse current: 0.20±0.07 pA pF^−1
[2]
  effect on IKH (in words): increased

## pertussis toxin
[2]; 1 μM carbachol
  IKH activation by carbachol after pertussis toxin pretreatment (in words): prevented
[2]; 1 μM carbachol, listed as PTX
  IKH activation by carbachol after pertussis toxin pretreatment (in words): attenuated
[2]; at −120 mV, cells preincubated with PTX, before carbachol
  IKH density: −6.4±0.8 pA pF^−1
[2]; PTX-preincubated cells, before carbachol
  IKH tail current: 1.8±0.6 pA pF^−1
